# Experimental data as given in the supplement of paper PMC6045584.
# ± gives the standard deviation of the averaged measurements.
# How the values were obtained:
# CANERTINIB [1] = compound: T1, C=CC(=O)Nc1cc2c(Nc3ccc(F)c(Cl)c3)ncnc2cc1OCCCN1CCOCC1 [CANERTINIB]; test: surviving fraction relative to DMSO-only wells; higher = less growth inhibition; conditions: exposure time: 5 days
# Summary of the method: (§1)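 Viability values are CellTiter-Glo luminescence readings, given as surviving fraction against the median of DMSO-only wells. The readings were taken after 10 minutes at room temperature, following five days of continuous exposure to inhibitors at 0.5, 1, 5, 10, 50, 100, 500 and 1000 nM that began 24 hours after log-phase tumour cell lines were seeded at 250–500 cells per well in 384-well plates. Every line was screened three times and kept only if replicate Pearson r >0.7 and median Z' >0.3.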
# SNX-5422 [2] = compound: T2, CC1(C)CC(=O)c2c(C(F)(F)F)nn(-c3ccc(C(N)=O)c(N[C@H]4CC[C@H](OC(=O)CN)CC4)c3)c2C1 [SNX-5422]; test: as above; conditions: exposure time: 5 days
# Summary of the method: as §1
# SAPACITABINE [3] = compound: T3, CCCCCCCCCCCCCCCC(=O)Nc1ccn([C@@H]2O[C@H](CO)[C@@H](O)[C@@H]2C#N)c(=O)n1 [SAPACITABINE]; test: as above; conditions: exposure time: 5 days
# Summary of the method: as §1
# BI-2536 [4] = compound: T4, CC[C@@H]1C(=O)N(C)c2cnc(Nc3ccc(C(=O)NC4CCN(C)CC4)cc3OC)nc2N1C1CCCC1 [BI-2536]; test: as above; conditions: exposure time: 5 days
# Summary of the method: as §1
# AFATINIB = compound: CN(C)C/C=C/C(=O)Nc1cc2c(Nc3ccc(F)c(Cl)c3)ncnc2cc1O[C@H]1CCOC1 [AFATINIB]; test: as above; conditions: exposure time: 5 days
# Summary of the method: as §1
# MDV3100 [5] = compound: T5, CNC(=O)c1ccc(N2C(=S)N(c3ccc(C#N)c(C(F)(F)F)c3)C(=O)C2(C)C)cc1F [MDV3100]; test: as above; conditions: exposure time: 5 days
# Summary of the method: as §1
# [6] = compound: Cn1cc(C2=Nc3cc(NC(=O)C(N)C4CCCCC4)cc4c3C2=CNNC4=O)cn1; test: as above; conditions: exposure time: 5 days
# Summary of the method: as §1
# TIOGUANINE [7] = compound: T6, Nc1nc2[nH]cnc2c(=S)[nH]1 [TIOGUANINE]; test: as above; conditions: exposure time: 5 days
# Summary of the method: as §1
# CANERTINIB [8] = compound: T1, CANERTINIB; test: area under dose-response curve of surviving fraction (unscaled, Aref=0) (surviving fraction x log10(nM)); higher = more resistant; conditions: exposure time: 5 days; dose range 0.5-1000 nM
# Summary of the method: (§2)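 Tumour cell lines in 384-well plates were exposed for five days to eight inhibitor concentrations from 0.5 to 1000 nM. Viability was read by CellTiter-Glo luminescence, normalised to DMSO-only wells, in three screens per line. Dose-response survival curves were fitted to surviving fractions by 3-parameter logistic regression in the drc R package. Area under the curve is the unscaled activity area (Aref = 0) over log10 dose.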
# SNX-5422 [9] = compound: T2, SNX-5422; test: as above; conditions: exposure time: 5 days; dose range 0.5-1000 nM
# Summary of the method: as §2
# SAPACITABINE [10] = compound: T3, SAPACITABINE; test: as above; conditions: exposure time: 5 days; dose range 0.5-1000 nM
# Summary of the method: as §2
# BI-2536 [11] = compound: T4, BI-2536; test: as above; conditions: exposure time: 5 days; dose range 0.5-1000 nM
# Summary of the method: as §2
# MDV3100 [12] = compound: T5, MDV3100; test: as above; conditions: exposure time: 5 days; dose range 0.5-1000 nM
# Summary of the method: as §2
# [13] = compound: Cn1cc(C2=Nc3cc(NC(=O)C(N)C4CCCCC4)cc4c3C2=CNNC4=O)cn1; test: as above; conditions: exposure time: 5 days; dose range 0.5-1000 nM
# Summary of the method: as §2
# TIOGUANINE [14] = compound: T6, TIOGUANINE; test: as above; conditions: exposure time: 5 days; dose range 0.5-1000 nM
# Summary of the method: as §2
test system,measurement,setting,value
SUM149.B1*.S BREAST,surviving fraction,CANERTINIB [1]; 0.5 nM,0.921 ± 0.016
same,surviving fraction,CANERTINIB [1]; 1 nM,0.941 ± 0.015
same,surviving fraction,CANERTINIB [1]; 5 nM,0.933 ± 0.026
same,surviving fraction,CANERTINIB [1]; 10 nM,0.917 ± 0.048
same,surviving fraction,CANERTINIB [1]; 50 nM,0.956 ± 0.028
same,surviving fraction,CANERTINIB [1]; 100 nM,0.972 ± 0.018
same,surviving fraction,CANERTINIB [1]; 500 nM,0.868 ± 0.055
same,surviving fraction,CANERTINIB [1]; 1000 nM,0.805 ± 0.029
same,surviving fraction,SNX-5422 [2]; 0.5 nM,1.06 ± 0.037
same,surviving fraction,SNX-5422 [2]; 1 nM,1.12 ± 0.032
same,surviving fraction,SNX-5422 [2]; 5 nM,1.09 ± 0.021
same,surviving fraction,SNX-5422 [2]; 10 nM,1.08 ± 0.037
same,surviving fraction,SNX-5422 [2]; 50 nM,0.385 ± 0.022
same,surviving fraction,SNX-5422 [2]; 100 nM,0.226 ± 0.017
same,surviving fraction,SNX-5422 [2]; 500 nM,0.0997 ± 0.0045
same,surviving fraction,SNX-5422 [2]; 1000 nM,0.0978 ± 0.0067
same,surviving fraction,SAPACITABINE [3]; 0.5 nM,0.918 ± 0.067
same,surviving fraction,SAPACITABINE [3]; 1 nM,0.792 ± 0.011
same,surviving fraction,SAPACITABINE [3]; 5 nM,0.888 ± 0.01
same,surviving fraction,SAPACITABINE [3]; 10 nM,0.455 ± 0.022
same,surviving fraction,SAPACITABINE [3]; 50 nM,0.839 ± 0.023
same,surviving fraction,SAPACITABINE [3]; 100 nM,0.567 ± 0.066
same,surviving fraction,SAPACITABINE [3]; 500 nM,0.281 ± 0.022
same,surviving fraction,SAPACITABINE [3]; 1000 nM,0.428 ± 0.022
same,surviving fraction,BI-2536 [4]; 0.5 nM,1.1 ± 0.091
same,surviving fraction,BI-2536 [4]; 1 nM,1.05 ± 0.03
same,surviving fraction,BI-2536 [4]; 5 nM,0.416 ± 0.067
same,surviving fraction,BI-2536 [4]; 10 nM,0.232 ± 0.031
same,surviving fraction,BI-2536 [4]; 50 nM,0.269 ± 0.032
same,surviving fraction,BI-2536 [4]; 100 nM,0.287 ± 0.021
same,surviving fraction,BI-2536 [4]; 500 nM,0.297 ± 0.045
same,surviving fraction,BI-2536 [4]; 1000 nM,0.229 ± 0.03
same,surviving fraction,AFATINIB; 0.5 nM,1.11 ± 0.014
same,surviving fraction,AFATINIB; 1 nM,1.11 ± 0.061
same,surviving fraction,AFATINIB; 5 nM,1.05 ± 0.02
same,surviving fraction,AFATINIB; 10 nM,1.05 ± 0.037
same,surviving fraction,AFATINIB; 50 nM,0.966 ± 0.03
same,surviving fraction,AFATINIB; 100 nM,0.972 ± 0.045
same,surviving fraction,AFATINIB; 500 nM,0.916 ± 0.022
same,surviving fraction,AFATINIB; 1000 nM,0.798 ± 0.044
same,surviving fraction,MDV3100 [5]; 0.5 nM,0.994 ± 0.02
same,surviving fraction,MDV3100 [5]; 1 nM,0.925 ± 0.017
same,surviving fraction,MDV3100 [5]; 5 nM,0.979 ± 0.063
same,surviving fraction,MDV3100 [5]; 10 nM,0.578 ± 0.014
same,surviving fraction,MDV3100 [5]; 50 nM,1.03 ± 0.04
same,surviving fraction,MDV3100 [5]; 100 nM,0.9605 ± 0.0031
same,surviving fraction,MDV3100 [5]; 500 nM,1.02 ± 0.011
same,surviving fraction,MDV3100 [5]; 1000 nM,0.694 ± 0.049
same,surviving fraction,[6]; 0.5 nM,1.045 ± 0.0088
same,surviving fraction,[6]; 1 nM,1.1 ± 0.025
same,surviving fraction,[6]; 5 nM,1.01 ± 0.057
same,surviving fraction,[6]; 10 nM,1.04 ± 0.033
same,surviving fraction,[6]; 50 nM,1.03 ± 0.062
same,surviving fraction,[6]; 100 nM,0.954 ± 0.03
same,surviving fraction,[6]; 500 nM,0.377 ± 0.0042
same,surviving fraction,[6]; 1000 nM,0.225 ± 0.024
same,surviving fraction,TIOGUANINE [7]; 0.5 nM,1.02 ± 0.072
same,surviving fraction,TIOGUANINE [7]; 1 nM,1.019 ± 0.0064
same,surviving fraction,TIOGUANINE [7]; 5 nM,1.03 ± 0.016
same,surviving fraction,TIOGUANINE [7]; 10 nM,1.03 ± 0.056
same,surviving fraction,TIOGUANINE [7]; 50 nM,1.02 ± 0.033
same,surviving fraction,TIOGUANINE [7]; 100 nM,1 ± 0.015
same,surviving fraction,TIOGUANINE [7]; 500 nM,0.993 ± 0.022
same,surviving fraction,TIOGUANINE [7]; 1000 nM,0.922 ± 0.033
same,area under dose-response curve,CANERTINIB [8],3
same,area under dose-response curve,SNX-5422 [9],2.31
same,area under dose-response curve,SAPACITABINE [10],1.89
same,area under dose-response curve,BI-2536 [11],2
same,area under dose-response curve,MDV3100 [12],2.91
same,area under dose-response curve,[13],3.05
same,area under dose-response curve,TIOGUANINE [14],3.25
